From US11622954B2, “Estrogen receptor ligands, compositions and methods related thereto” (The Regents of the University of California, priority 2016, dated 2023)

Key:
active EAE = active EAE clinical score (Example 1); format: in vivo, C57BL6 female mice; conditions: high dose (8 mg/kg DPN, 10.8 mg/kg Compound 1), every other day, day 12 to day 48; FIG. 1A
adoptive EAE = adoptive EAE clinical score (Example 2); format: in vivo, mice; conditions: FIG. 2A; for EAE clinical score, dose dependence: high (8 mg/kg/day) and low (2 mg/kg/day) dose
Excerpt: Active EAE induction in Example 1 uses pertussis toxin to artificially make the BBB more permeable and permit more infiltration of activated Th1/Th17 immune cells into the CNS. […] Thus, an alternative EAE induction method was used. Adoptive EAE uses MOG primed and activated immune cells from donor immunized mice for subsequent transfer into recipient mice with no administration of pertussis toxin. Thus, the blood brain barrier interactions in adoptive EAE are more physiologic than in active EAE. […] This experiment was larger since 2 sets of mice (donors and recipients) were needed and 2 doses were used, making the adoptive EAE experiment 4 times larger than the active EAE experiment 1. […] Brain and spinal cord levels were undetectable 24 hours after dosing.

[1] = DPN concentration 24 hours after dosing in adoptive EAE mice (Example 2); format: in vivo
Method: This experiment was larger since 2 sets of mice (donors and recipients) were needed and 2 doses were used, making the adoptive EAE experiment 4 times larger than the active EAE experiment 1.
Brain and spinal cord levels were undetectable 24 hours after dosing.

[2] = tissue concentrations of DPN in healthy mice (Example 3); format: in vivo; conditions: for levels of DPN in plasma, brain and spinal cord, compared to dosing with DPN: molar equivalent doses
Method: Compound 1 levels were not measured. […] At 12 hours, only high dose Compound 1 was detectable in plasma.
This experiment was repeated and the data above was confirmed.
This experiment was repeated with fresher standards and faster freezing of tissues once obtained from the mouse sacrifice.

[3] = concentrations over time in plasma, spinal cord and brain, adoptive EAE setup (Example 4); format: in vivo, mice; conditions: for persistence in brain and spinal tissue: 12 hours
Method: The experimental setup and monitoring was the same as in Example 2. […] Both Compounds 1 and 2 persisted in brain and spinal tissue at 12 hours.

[4] = DPN concentration in plasma, spinal cord and brain of active EAE mice (Example 1); conditions: three hours after the end of disease; FIG. 1B-1D
EAE = conditions: cited from earlier work
multiple sclerosis = conditions: cited from earlier work
[5] = MS patients, phase 2 clinical trial

## CC(=O)Oc1ccc(C[C@@H](C#N)c2ccc(OC(C)=O)cc2)cc1 [Compound 1]
Active EAE
  effect on EAE disease progression (EAE clinical score): protective effects
Adoptive EAE; adoptive EAE
  efficacy on EAE clinical score compared to DPN: more efficacy
Adoptive EAE
  EAE clinical score, dose dependence: dose responses
[1]
  brain and spinal cord levels: undetectable
[1]; FIG. 2B
  plasma concentration of DPN, Compound 1 vs DPN: no difference
[2]; 3 and 6 hours
  levels of DPN in plasma, brain and spinal cord, compared to dosing with DPN: higher
[2]; 15 minutes
  levels of DPN in plasma, brain and spinal cord, compared to dosing with DPN: lower
[2]; 12 hours, high dose
  DPN level in plasma: detectable
[3]
  persistence in brain and spinal tissue: persisted
[4]
  amounts of DPN in plasma, spinal cord tissue and brain tissue: improvement in maintaining effective amounts of DPN

## CCC(=O)Oc1ccc(CC(C#N)c2ccc(OC(=O)CC)cc2)cc1 (stereo not drawn) [Compound 2]
[3]
  persistence in brain and spinal tissue: persisted
[3]; first 6 hours after treatment, FIG. 7A-7C
  concentration in plasma, spinal cord and brain tissue, among DPN, Compound 1 and Compound 2: highest concentration

## N#CC(Cc1ccc(O)cc1)c1ccc(O)cc1 (stereo not drawn) [DPN, 2,3-bis(4-hydroxyphenyl)propanenitrile, reference compound]
Active EAE
  effect on EAE disease progression (EAE clinical score): protective effects
Adoptive EAE
  EAE clinical score, dose dependence: dose responses
[1]
  brain and spinal cord levels: undetectable
EAE; dosing every two days, shown in the past
  efficacy in EAE of dosing regimen: efficacious
EAE; known treatment of EAE
  clinical EAE disease severity: reduces clinical EAE disease severity
EAE; mouse, in vivo
  tolerability of dosing regimen: tolerable

## C[C@]12CC[C@@H]3c4ccc(O)cc4CC[C@H]3[C@@H]1C[C@@H](O)[C@@H]2O [estriol]
Multiple sclerosis; [5]
  fatigue: reduced fatigue
  relapses: reduced relapses
Multiple sclerosis; estriol as compared to placebo treated MS patients
  cortical gray matter atrophy: spared
